Activity calls are given as the source filed them. The calls are words filed in the database; no cut-off is given here.
Legend:
A549 = test: Cytotoxicity against human A549 cells assessed as inhibition of cell growth incubated for 72 hrs by CCK-8 assay; assay type: functional, cell-based; settings: A549, 72 h
Staphylococcus aureus = test: Antimicrobial activity against Staphylococcus aureus ATCC 29213 incubated for 24 hrs by absorbance based analysis; assay type: functional, organism-based
HepG2 = test: Cytotoxicity against human HepG2 cells assessed as inhibition of cell growth incubated for 72 hrs by CCK-8 assay; assay type: functional, cell-based; settings: HepG2, 72 h
Saccharomyces cerevisiae = test: Antimicrobial activity against Saccharomyces cerevisiae AS2.399 incubated for 24 hrs by absorbance based analysis; assay type: functional, organism-based
Caco-2 = test: Cytotoxicity against human Caco-2 cells assessed as inhibition of cell growth incubated for 72 hrs by CCK-8 assay; assay type: functional, cell-based; settings: Caco-2, 72 h
Aspergillus cristatus = test: Antimicrobial activity against Aspergillus cristatus CB10002 incubated for 24 hrs by absorbance based analysis; assay type: functional, organism-based
Escherichia coli = test: Antimicrobial activity against Escherichia coli DH5alpha incubated for 24 hrs by absorbance based analysis; assay type: functional, organism-based
Aspergillus ochraceus = test: Antimicrobial activity against Aspergillus ochraceus AS3.3876 incubated for 24 hrs by absorbance based analysis; assay type: functional, organism-based
Aspergillus flavus = test: Antimicrobial activity against Aspergillus flavus AS3.3950 incubated for 24 hrs by absorbance based analysis; assay type: functional, organism-based
MDA-MB-231 = test: Cytotoxicity against human MDA-MB-231 cells assessed as inhibition of cell growth incubated for 72 hrs by CCK-8 assay; assay type: functional, cell-based; settings: MDA-MB-231, 72 h

Structure (SMILES) | IC50 (A549) [µM] | Activity (Staphylococcus aureus) | IC50 (HepG2) [µM] | Activity (Saccharomyces cerevisiae) | IC50 (Caco-2) [µM] | Activity (Aspergillus cristatus) | Activity (Escherichia coli) | Activity (Aspergillus ochraceus) | Activity (Aspergillus flavus) | IC50 (MDA-MB-231) [µM]
Cc1ccccc1/C=C/CCC(=O)O | 64 | inactive | 740 | inactive | > 1000 | inactive | inactive | inactive | inactive | 190
CCCC/C=C\CCCCCCCC(=O)O [MYRISTOLEIC ACID] | 270 | – | – | – | 270 | – | – | – | – | –
C=CCCCCCCCCCCC(=O)O | 120 | – | – | – | 140 | – | – | – | – | –
Cc1ccccc1/C=C/CCCCCCCCCCC(=O)O | 0.35 | inactive | 2.2 | inactive | 4.6 | inactive | inactive | inactive | inactive | 0.45
CCCCCCCCCCCCC(=O)O [TRIDECANOATE] | 250 | – | – | – | 280 | – | – | – | – | –
CCCCCCCCCCCCCC(=O)O [MYRISTIC ACID] | 200 | – | – | – | > 1000 | – | – | – | – | –
